What was measured:
Experiment in all cases: biochemical
Design in all cases: KINOMEscan competition binding panel (Eurofins DiscoverX), single concentration, percent inhibition
Conditions in all cases: read-out: 15 at 1 µM % inhibition
[1] = target: T1, ABL1(F317I)-nonphosphorylated (Homo sapiens, UniProt P00519, F317I)
T1 construct: nonphosphorylated
How it was run: (§1)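 Binding was profiled in the KINOMEscan panel of over 400 human kinases, with each compound tested at a single concentration of 1 µM to map selectivity.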

ACVR2A = ACVR2A (Homo sapiens, UniProt P27037)
How it was run: as §1

ANKK1 = ANKK1 (Homo sapiens, UniProt Q8NFD2)
How it was run: as §1

BMPR1B = BMPR1B (Homo sapiens, UniProt O00238)
How it was run: as §1

BMPR2 = BMPR2 (Homo sapiens, UniProt Q13873)
How it was run: as §1

CHEK1 = CHEK1 (Homo sapiens, UniProt O14757)
How it was run: as §1

CSNK1G1 = CSNK1G1 (Homo sapiens, UniProt Q9HCP0)
How it was run: as §1

DAPK1 = DAPK1 (Homo sapiens, UniProt P53355)
How it was run: as §1

EPHB6 = EPHB6 (Homo sapiens, UniProt O15197)
How it was run: as §1

IRAK3 = IRAK3 (Homo sapiens, UniProt Q9Y616)
How it was run: as §1

ITK = ITK (Homo sapiens, UniProt Q08881)
How it was run: as §1

MINK = target: T2, MINK (Homo sapiens, UniProt Q8N4C8)
T2 construct: gene MINK1
How it was run: as §1

NDR1 = target: T3, NDR1 (Homo sapiens, UniProt Q15208)
T3 construct: gene STK38
How it was run: as §1

NIK = target: T4, NIK (Homo sapiens, UniProt Q99558)
T4 construct: gene MAP3K14
How it was run: as §1

PDGFRA = PDGFRA (Homo sapiens, UniProt P16234)
How it was run: as §1

PIK4CB = target: T5, PIK4CB (Homo sapiens, UniProt Q9UBF8)
T5 construct: gene PI4KB
How it was run: as §1

PLK4 = PLK4 (Homo sapiens, UniProt O00444)
How it was run: as §1

PRP4 = target: T6, PRP4 (Homo sapiens, UniProt Q13523)
T6 construct: gene PRPF4B
How it was run: as §1

RET(V804M) = RET(V804M) (Homo sapiens, UniProt P07949, V804M)
How it was run: as §1

SNRK = SNRK (Homo sapiens, UniProt Q9NRH2)
How it was run: as §1

TYRO3 = TYRO3 (Homo sapiens, UniProt Q06418)
How it was run: as §1

ULK2 = ULK2 (Homo sapiens, UniProt Q8IYT8)
How it was run: as §1

VRK2 = VRK2 (Homo sapiens, UniProt Q86Y07)
How it was run: as §1

YES = target: T7, YES (Homo sapiens, UniProt P07947)
T7 construct: gene YES1
How it was run: as §1

Chain of PDGFRA (P16234 whole entry): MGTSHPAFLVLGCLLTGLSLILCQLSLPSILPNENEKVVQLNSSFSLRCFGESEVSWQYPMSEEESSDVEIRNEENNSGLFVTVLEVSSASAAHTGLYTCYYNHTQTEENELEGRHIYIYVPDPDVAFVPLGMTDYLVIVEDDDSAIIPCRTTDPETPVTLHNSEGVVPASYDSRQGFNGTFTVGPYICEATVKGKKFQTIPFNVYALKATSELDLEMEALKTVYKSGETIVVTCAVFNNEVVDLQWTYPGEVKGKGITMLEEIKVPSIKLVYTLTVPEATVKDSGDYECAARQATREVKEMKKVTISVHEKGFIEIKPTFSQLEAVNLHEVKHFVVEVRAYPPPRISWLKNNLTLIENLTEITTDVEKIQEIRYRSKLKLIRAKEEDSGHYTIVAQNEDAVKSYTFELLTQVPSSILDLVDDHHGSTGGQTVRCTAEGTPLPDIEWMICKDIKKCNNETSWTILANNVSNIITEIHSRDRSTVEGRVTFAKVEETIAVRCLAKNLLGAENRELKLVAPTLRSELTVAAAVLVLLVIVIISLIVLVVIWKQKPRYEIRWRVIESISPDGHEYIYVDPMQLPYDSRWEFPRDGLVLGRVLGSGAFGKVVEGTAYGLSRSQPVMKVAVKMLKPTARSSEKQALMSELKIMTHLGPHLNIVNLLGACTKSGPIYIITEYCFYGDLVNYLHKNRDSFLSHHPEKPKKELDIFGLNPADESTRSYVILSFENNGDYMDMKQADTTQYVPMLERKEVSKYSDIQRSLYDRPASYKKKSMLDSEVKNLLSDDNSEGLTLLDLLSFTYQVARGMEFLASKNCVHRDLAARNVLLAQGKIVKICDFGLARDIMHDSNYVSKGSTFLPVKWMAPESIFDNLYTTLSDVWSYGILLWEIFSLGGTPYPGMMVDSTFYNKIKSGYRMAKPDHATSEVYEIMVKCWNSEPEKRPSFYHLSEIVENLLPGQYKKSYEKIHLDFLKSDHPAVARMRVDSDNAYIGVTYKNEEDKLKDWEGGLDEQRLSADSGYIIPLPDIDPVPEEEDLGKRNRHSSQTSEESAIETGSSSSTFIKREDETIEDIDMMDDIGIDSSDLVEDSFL
Chain of TYRO3 (Q06418 whole entry): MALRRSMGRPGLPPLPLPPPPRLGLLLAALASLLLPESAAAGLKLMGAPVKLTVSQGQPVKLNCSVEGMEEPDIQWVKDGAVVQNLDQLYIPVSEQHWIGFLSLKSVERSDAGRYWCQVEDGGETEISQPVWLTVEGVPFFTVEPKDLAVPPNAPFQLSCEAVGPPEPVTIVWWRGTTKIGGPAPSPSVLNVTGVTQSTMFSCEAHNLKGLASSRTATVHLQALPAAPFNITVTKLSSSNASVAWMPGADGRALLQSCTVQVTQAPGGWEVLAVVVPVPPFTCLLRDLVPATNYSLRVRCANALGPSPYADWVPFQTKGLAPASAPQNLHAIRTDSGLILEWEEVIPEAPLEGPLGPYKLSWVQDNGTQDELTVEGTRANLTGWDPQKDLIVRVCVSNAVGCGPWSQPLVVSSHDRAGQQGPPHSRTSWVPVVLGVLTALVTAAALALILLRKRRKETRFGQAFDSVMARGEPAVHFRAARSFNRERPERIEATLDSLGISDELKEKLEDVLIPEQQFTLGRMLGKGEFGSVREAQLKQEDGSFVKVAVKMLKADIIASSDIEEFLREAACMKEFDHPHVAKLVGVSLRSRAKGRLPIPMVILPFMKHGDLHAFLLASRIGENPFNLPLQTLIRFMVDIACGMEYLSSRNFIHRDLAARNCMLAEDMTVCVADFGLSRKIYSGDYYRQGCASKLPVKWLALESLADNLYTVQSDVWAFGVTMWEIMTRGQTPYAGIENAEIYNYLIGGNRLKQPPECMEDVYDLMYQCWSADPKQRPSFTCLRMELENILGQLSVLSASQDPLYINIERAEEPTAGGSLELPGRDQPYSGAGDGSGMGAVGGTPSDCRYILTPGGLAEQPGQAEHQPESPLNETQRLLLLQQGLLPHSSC
T6 sequence (Q13523 whole entry): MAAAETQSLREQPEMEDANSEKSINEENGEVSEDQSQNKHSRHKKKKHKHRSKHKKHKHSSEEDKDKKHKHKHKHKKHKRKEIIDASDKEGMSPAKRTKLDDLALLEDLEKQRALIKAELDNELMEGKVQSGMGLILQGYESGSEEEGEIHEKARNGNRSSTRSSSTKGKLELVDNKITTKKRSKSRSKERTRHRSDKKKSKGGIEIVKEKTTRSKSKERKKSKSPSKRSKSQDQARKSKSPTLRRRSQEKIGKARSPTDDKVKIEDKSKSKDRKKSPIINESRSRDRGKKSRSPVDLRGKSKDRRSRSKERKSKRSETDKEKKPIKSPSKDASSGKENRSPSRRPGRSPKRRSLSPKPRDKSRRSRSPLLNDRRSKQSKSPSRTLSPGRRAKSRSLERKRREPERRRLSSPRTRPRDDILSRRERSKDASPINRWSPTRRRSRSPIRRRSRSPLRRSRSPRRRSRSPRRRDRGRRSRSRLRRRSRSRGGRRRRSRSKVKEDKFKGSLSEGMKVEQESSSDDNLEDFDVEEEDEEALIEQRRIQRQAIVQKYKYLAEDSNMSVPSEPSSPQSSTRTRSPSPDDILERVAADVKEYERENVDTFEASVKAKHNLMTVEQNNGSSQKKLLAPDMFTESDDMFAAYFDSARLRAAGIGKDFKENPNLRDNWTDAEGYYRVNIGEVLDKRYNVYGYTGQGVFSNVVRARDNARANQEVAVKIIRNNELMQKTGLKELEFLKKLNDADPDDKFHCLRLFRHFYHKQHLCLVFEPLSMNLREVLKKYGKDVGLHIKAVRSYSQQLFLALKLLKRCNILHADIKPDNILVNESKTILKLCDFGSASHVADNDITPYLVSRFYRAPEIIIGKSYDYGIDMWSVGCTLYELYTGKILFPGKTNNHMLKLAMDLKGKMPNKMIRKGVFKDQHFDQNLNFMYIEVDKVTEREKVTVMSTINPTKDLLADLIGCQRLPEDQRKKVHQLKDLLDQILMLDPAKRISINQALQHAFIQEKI
Chain of EPHB6 (O15197 whole entry): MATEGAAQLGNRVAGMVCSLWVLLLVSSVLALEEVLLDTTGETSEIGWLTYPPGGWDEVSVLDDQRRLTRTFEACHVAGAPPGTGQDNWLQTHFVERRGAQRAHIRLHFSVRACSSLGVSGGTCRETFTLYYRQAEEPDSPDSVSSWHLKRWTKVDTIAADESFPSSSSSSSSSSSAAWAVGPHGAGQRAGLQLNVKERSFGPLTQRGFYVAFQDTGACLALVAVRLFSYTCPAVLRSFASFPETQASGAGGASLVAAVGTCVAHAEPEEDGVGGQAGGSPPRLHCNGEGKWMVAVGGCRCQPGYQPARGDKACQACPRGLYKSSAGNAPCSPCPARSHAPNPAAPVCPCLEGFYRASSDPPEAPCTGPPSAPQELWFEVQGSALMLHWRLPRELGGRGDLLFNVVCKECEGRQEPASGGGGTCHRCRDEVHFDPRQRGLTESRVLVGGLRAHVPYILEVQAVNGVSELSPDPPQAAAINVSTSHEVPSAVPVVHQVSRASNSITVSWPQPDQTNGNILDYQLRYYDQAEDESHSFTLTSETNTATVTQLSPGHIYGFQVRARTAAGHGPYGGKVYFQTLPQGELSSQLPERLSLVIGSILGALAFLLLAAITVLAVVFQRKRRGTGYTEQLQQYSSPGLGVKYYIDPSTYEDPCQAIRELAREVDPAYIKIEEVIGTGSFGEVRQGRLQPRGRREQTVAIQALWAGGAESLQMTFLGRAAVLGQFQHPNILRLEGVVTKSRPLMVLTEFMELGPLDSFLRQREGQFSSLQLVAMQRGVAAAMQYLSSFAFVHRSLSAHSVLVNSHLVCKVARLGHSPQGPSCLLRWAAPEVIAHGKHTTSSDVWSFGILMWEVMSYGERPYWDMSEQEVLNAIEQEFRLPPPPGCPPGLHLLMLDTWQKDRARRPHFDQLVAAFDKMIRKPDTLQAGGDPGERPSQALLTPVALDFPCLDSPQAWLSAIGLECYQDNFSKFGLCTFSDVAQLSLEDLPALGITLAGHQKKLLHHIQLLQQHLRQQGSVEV
Chain of ULK2 (Q8IYT8 whole entry): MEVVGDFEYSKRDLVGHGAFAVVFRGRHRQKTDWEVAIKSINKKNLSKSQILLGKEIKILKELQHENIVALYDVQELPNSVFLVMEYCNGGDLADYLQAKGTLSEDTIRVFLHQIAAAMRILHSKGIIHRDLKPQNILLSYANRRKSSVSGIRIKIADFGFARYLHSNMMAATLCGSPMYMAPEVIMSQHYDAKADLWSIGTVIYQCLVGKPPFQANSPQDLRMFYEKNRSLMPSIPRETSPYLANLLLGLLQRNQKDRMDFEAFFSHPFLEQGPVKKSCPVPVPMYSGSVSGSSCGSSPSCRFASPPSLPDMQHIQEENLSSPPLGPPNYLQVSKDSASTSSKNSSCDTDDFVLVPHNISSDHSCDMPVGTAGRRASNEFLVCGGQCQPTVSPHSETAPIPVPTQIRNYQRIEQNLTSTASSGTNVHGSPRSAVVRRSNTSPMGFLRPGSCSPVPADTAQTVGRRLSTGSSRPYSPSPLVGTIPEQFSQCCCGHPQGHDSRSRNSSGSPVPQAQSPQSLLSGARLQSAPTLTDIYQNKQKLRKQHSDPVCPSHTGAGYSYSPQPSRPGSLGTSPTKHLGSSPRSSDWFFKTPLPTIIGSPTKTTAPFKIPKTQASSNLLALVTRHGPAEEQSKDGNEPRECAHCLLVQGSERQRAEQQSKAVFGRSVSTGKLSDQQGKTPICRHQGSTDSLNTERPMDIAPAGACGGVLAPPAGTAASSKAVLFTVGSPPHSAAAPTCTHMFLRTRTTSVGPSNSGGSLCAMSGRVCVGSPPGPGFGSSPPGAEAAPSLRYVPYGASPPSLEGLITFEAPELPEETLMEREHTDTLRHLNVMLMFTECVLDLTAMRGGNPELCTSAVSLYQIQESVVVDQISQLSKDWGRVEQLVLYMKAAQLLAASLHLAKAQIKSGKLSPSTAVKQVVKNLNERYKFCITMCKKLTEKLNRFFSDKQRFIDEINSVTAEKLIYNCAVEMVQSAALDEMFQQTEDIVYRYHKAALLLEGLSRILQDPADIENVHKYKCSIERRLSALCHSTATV

For CNS(=O)(=O)c1ccc(N(C)C)c(Nc2nc(C)nc3cc(OC)c(OC)cc23)c1 [compound 15, 3-((6,7-dimethoxy-2-methylquinazolin-4-yl)amino)-4-(dimethylamino)-N-methylbenzenesulfonamide], the inhibition at 1 µM [1] was 17%, the inhibition at 1 µM (ACVR2A) was 0% and the inhibition at 1 µM (ANKK1) was 24%. It also gave an inhibition at 1 µM (BMPR1B) of 31%, an inhibition at 1 µM (BMPR2) of 21% and an inhibition at 1 µM (CHEK1) of 1%. For the same compound, the inhibition at 1 µM (CSNK1G1) was 0%, the inhibition at 1 µM (DAPK1) was 7% and the inhibition at 1 µM (EPHB6) was 0%. For the same compound, the inhibition at 1 µM (IRAK3) was 3%, the inhibition at 1 µM (ITK) was 0% and the inhibition at 1 µM (MINK) was 22%. It also gave an inhibition at 1 µM (NDR1) of 13%, an inhibition at 1 µM (NIK) of 12% and an inhibition at 1 µM (PDGFRA) of 10%. For the same compound, the inhibition at 1 µM (PIK4CB) was 12%, the inhibition at 1 µM (PLK4) was 23% and the inhibition at 1 µM (PRP4) was 52%. For the same compound, the inhibition at 1 µM (RET(V804M)) was 0%, the inhibition at 1 µM (SNRK) was 13% and the inhibition at 1 µM (TYRO3) was 0%. The inhibition at 1 µM (ULK2) was 9%, the inhibition at 1 µM (VRK2) was 12% and the inhibition at 1 µM (YES) was 0%.

Source: article PMC7180948, “New Insights into 4-Anilinoquinazolines as Inhibitors of Cardiac Troponin I–Interacting Kinase (TNNi3K)” (Molecules, 2020)
